The test concerns the target EGR-1 (Homo sapiens, UniProt P18146). In words: EGR-1 DNA binding activity assay (EDBA). Details: made in house. Particulars: EGR-1 DNA binding inhibitory activity; EGR-1 overexpressing cell lysate; absorbance at 450 nm; compound concentration not given. The method, then: In this experiment, the inhibitory effect of the compounds of the present invention on EGR-1 binding activity was evaluated using an EGR-1 DNA binding activity assay (EDBA).
Single-stranded sense and antisense oligonucleotides of the following EGR-1 binding sequence (EBS) were prepared by outsourcing to Bioneer Co., Ltd. (Daejeon, Korea). In this case, the 5'-end of the sense oligonucleotide was labeled with biotin. The sense and antisense oligonucleotides were heated at 95 °C for 5 minutes and then left overnight at room temperature to hybridize the sense and antisense oligonucleotides. Hereinafter, the hybridized sense and antisense oligonucleotides are referred to as biotin-EBS. • Sense sequence: biotin-5'-[…]-3' • Antisense sequence: 5'-[…]-3'
Avidin protein was coated on a 96-well plate (purchased from Thermo Fisher Scientific), and biotin-EBS was added to the plate at a concentration of 0.5 pmol/50 µL/well, followed by reaction at 37 °C for 1 hour to allow biotin-EBS oligonucleotide to be attached to the plate. After washing three times with phosphate buffer saline containing 0.05% Tween 20 (PBS/Tween 20) to remove unattached biotin-EBS oligonucleotides, 200 µL of PBS/Tween 20 solution containing 2% bovine serum albumin (BSA) was added to each well, followed by reaction at 37 °C for 1 hour to block the surface of the plate where no oligonucleotide was attached.
The solution containing the sample compound and the EGR-1 protein was added to the biotin-EBS oligonucleotide coated plate prepared in step (2).
The compound sample (1 µL) was reacted with the EGR-1 overexpressing cell lysate containing 10 mM Tris, pH 7.5, 50 mM KCl, 2% BSA and 8% glycerol at room temperature for 30 minutes, and then added to a reaction well coated with biotin-EBS and further reacted at room temperature for one hour. After washing three times with PBS/Tween 20 solution, an EGR-1 antibody was added to the PBS solution supplemented with 2% BSA and 5 mM NaCl in an amount of 50 µL per each well. The mixture was incubated at room temperature for one hour, washed three times with PBS/Tween 20 solution, and then treated with horseradish peroxidase-conjugated secondary antibody (Goat anti-rabbit IgG antibody, Cell Signaling Technology company, Danvers, Mass., USA) diluted by 1:1000 at room temperature for one hour. After washing five times with PBS/Tween 20 solution, a substrate tetramethylbenzidine solution was added to each well in an amount of 50 µL. After reacting for 5 minutes, the reaction was stopped by adding 100 µL of 2 N sulfuric acid solution. The DNA binding inhibitory activity of EGR-1 was measured by absorbance at 450 nm according to Equation 1 below. EGR-1 DNA binding inhibitory activity (%) = 100−{(As/Ap)×100} [formula]
As: absorbance of a sample prepared by reacting an EGR-1-overexpressing cell lysate with the compound.
Ap: absorbance of the sample treated only with EGR-1-overexpressing cell lysate.
Chain of EGR-1 (P18146 whole entry): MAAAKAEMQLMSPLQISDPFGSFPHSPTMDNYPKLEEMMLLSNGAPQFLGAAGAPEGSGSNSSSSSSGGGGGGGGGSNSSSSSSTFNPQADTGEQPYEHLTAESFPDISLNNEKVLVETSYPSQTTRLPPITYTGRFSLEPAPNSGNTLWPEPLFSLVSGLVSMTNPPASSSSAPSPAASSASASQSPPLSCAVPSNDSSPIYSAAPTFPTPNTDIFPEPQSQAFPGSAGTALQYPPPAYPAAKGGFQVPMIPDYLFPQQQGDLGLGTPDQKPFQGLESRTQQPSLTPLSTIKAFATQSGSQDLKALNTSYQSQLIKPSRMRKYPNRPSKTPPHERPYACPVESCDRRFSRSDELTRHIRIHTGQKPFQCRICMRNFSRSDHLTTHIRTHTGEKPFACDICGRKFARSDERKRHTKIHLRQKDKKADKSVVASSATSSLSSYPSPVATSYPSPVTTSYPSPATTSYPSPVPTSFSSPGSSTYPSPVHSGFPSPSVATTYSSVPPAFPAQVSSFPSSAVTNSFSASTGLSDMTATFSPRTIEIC
In the case of `O=C1Nc2ccc(F)cc2/C1=N/NC(=S)Nc1ccc(Br)cc1` [Compound 15, (Z)-N-(4-bromophenyl)-2-(5-fluoro-2-oxoindolin-3-ylidene)hydrazinethioamide], the “Inhibition Rate (%)” value amounted to 37.07%. The same measure for `O=C1Nc2cc(Br)ccc2/C1=N/NC(=S)Nc1cccc([N+](=O)[O-])c1` [Compound 36, (Z)-2-(6-bromo-2-oxoindolin-3-ylidene)-N-(3-nitrophenyl)hydrazinethioamide]: 46.33%; for `O=C1Nc2c(F)cccc2/C1=N/NC(=S)Nc1ccc(F)cc1` [Compound 18, (Z)-2-(7-fluoro-2-oxoindolin-3-ylidene)-N-(4-fluorophenyl)hydrazinethioamide]: 33.80%; for `NNC(=S)Nc1ccc(C(F)(F)F)cc1` [Compound 5, N-(4-(trifluoromethyl)phenyl)hydrazinethioamide]: 6.33%. In the case of `Cc1ccc2c(c1)/C(=N/NC(=S)Nc1ccc(F)cc1)C(=O)N2` [Compound 33, (Z)-N-(4-fluorophenyl)-2-(5-methyl-2-oxoindolin-3-ylidene)hydrazinethioamide], the “Inhibition Rate (%)” value is 37.77%. Take `COc1ccc2c(c1)NC(=O)/C2=N\NC(=S)Nc1ccc(C(F)(F)F)cc1` [Compound 26, (Z)-2-(6-methoxy-2-oxoindolin-3-ylidene)-N-(4-(trifluoromethyl)phenyl)hydrazinethioamide]: the “Inhibition Rate (%)” value is on record as 49.67%. The same measure for `Cc1ccc2c(c1)/C(=N/NC(=S)Nc1cccc([N+](=O)[O-])c1)C(=O)N2` [Compound 30, (Z)-2-(5-methyl-2-oxoindolin-3-ylidene)-N-(3-nitrophenyl)hydrazinethioamide]: 32.70%.

For `O=C1Nc2ccc(Br)cc2/C1=N/NC(=S)Nc1cccc([N+](=O)[O-])c1` [Compound 48, (Z)-2-(5-bromo-2-oxoindolin-3-ylidene)-N-(3-nitrophenyl)hydrazinethioamide], the “Inhibition Rate (%)” value was 52.00%. In the case of `NNC(=S)Nc1ccc(Br)cc1` [Compound 3, N-(4-bromophenyl)hydrazinethioamide], the “Inhibition Rate (%)” value was 20.73%. As for `NNC(=S)NC(=O)c1ccccc1` [Compound 9, N-(hydrazinocarbonothioyl)benzamide], the figure is 42.17%. The same measure for `O=C1Nc2ccc(F)cc2/C1=N/NC(=S)Nc1cccc(C(F)(F)F)c1` [Compound 62, (Z)-2-(5-fluoro-2-oxoindolin-3-ylidene)-N-(3-(trifluoromethyl)phenyl)hydrazinethioamide]: 10.00%. The same measure for `O=C1Nc2ccc(F)cc2/C1=N/NC(=S)NCc1ccccc1` [Compound 63, (Z)-N-benzyl-2-(5-fluoro-2-oxoindolin-3-ylidene)hydrazinethioamide]: 48.77%. For the compound `COc1ccc(NC(=S)N/N=C2\C(=O)Nc3cccc(Br)c32)cc1` [Compound 54, (Z)-2-(4-bromo-2-oxoindolin-3-ylidene)-N-(4-methoxyphenyl)hydrazinethioamide], the “Inhibition Rate (%)” value came to 12.67%. As for `COc1cccc(NC(=S)N/N=C2\C(=O)Nc3ccccc32)c1` [Compound 50, (Z)-N-(3-methoxyphenyl)-2-(2-oxoindolin-3-ylidene)hydrazinethioamide], the figure is 27.33%; as for `COc1ccc2c(c1)NC(=O)/C2=N\NC(=S)Nc1cccc(C(F)(F)F)c1` [Compound 66, (Z)-2-(6-methoxy-2-oxoindolin-3-ylidene)-N-(3-(trifluoromethyl)phenyl)hydrazinethioamide], 11.70%; as for `NC(=S)N/N=C1\C(=O)Nc2cc(Br)ccc21` [Compound 41, (Z)-2-(6-bromo-2-oxoindolin-3-ylidene)hydrazinethioamide], 49.00%. Take `COc1ccc2c(c1)NC(=O)/C2=N\NC(=S)Nc1ccccc1OC` [Compound 24, (Z)-2-(6-methoxy-2-oxoindolin-3-ylidene)-N-(2-methoxyphenyl)hydrazin-1-carbothioamide]: the “Inhibition Rate (%)” value turned out to be 42.00%. In the case of `CCNC(=S)N/N=C1\C(=O)Nc2ccc(C)cc21` [Compound 73, (Z)-N-ethyl-2-(5-methyl-2-oxoindolin-3-ylidene)hydrazinethioamide], the “Inhibition Rate (%)” value stood at 29.80%. As for `COc1cccc(NC(=S)N/N=C2\C(=O)Nc3cccc(Br)c32)c1` [Compound 51, (Z)-2-(4-bromo-2-oxoindolin-3-ylidene)-N-(3-methoxyphenyl)hydrazinethioamide], the figure is 28.67%; as for `O=C1Nc2ccc(F)cc2/C1=N/NC(=S)Nc1ccccc1` [Compound 12, (Z)-2-(5-fluoro-2-oxoindolin-3-ylidene)-N-phenylhydrazinethioamide], 28.97%. The same measure for `O=C1Nc2ccc(OC(F)(F)F)cc2/C1=N/NC(=S)Nc1ccc(Br)cc1` [Compound 79, (Z)-N-(4-bromophenyl)-2-(2-oxo-5-(trifluoromethoxy)indolin-3-ylidene)hydrazinethioamide]: 42.27%; for `NNC(=S)NCc1ccccc1` [Compound 10, N-benzylhydrazinethioamide]: 35.47%. As to `NC(=S)N/N=C1\C(=O)Nc2c(Br)cccc21` [Compound 42, (Z)-2-(7-bromo-2-oxoindolin-3-ylidene)hydrazinethioamide], the “Inhibition Rate (%)” value was determined as 53.00%. Take `CC(C)CNC(=S)NN` [Compound 8, N-isobutylhydrazinethioamide]: the “Inhibition Rate (%)” value is 38.73%. Regarding `O=C1Nc2ccc(OC(F)(F)F)cc2/C1=N/NC(=S)Nc1ccccc1` [Compound 76, (Z)-2-(2-oxo-5-(trifluoromethoxy)indolin-3-ylidene)-N-phenylhydrazinethioamide], the “Inhibition Rate (%)” value is listed as 17.23%.

As to `COc1ccc(NC(=S)N/N=C2\C(=O)Nc3ccccc32)cc1` [Compound 53, (Z)-N-(4-methoxyphenyl)-2-(2-oxoindolin-3-ylidene)hydrazinethioamide], the “Inhibition Rate (%)” value was 10.00%. As for `COc1ccc2c(c1)NC(=O)/C2=N\NC(=S)Nc1ccc(Br)cc1` [Compound 68, (Z)-N-(4-bromophenyl)-2-(6-methoxy-2-oxoindolin-3-ylidene)hydrazin-1-carbothioamide], the figure is 17.80%; as for `O=C1Nc2ccc(F)cc2/C1=N/NC(=S)Nc1cccc([N+](=O)[O-])c1` [Compound 13, (Z)-2-(5-fluoro-2-oxoindolin-3-ylidene)-N-(3-nitrophenyl)hydrazinethioamide], 25.57%. As for `Cc1ccc2c(c1)/C(=N/NC(=S)Nc1ccc(Br)cc1)C(=O)N2` [Compound 70, (Z)-N-(4-bromophenyl)-2-(5-methyl-2-oxoindolin-3-ylidene)hydrazinethioamide], the figure is 29.60%. On to `CCNC(=S)N/N=C1\C(=O)Nc2cc(OC)ccc21` [Compound 27, (Z)-N-ethyl-2-(6-methoxy-2-oxoindolin-3-ylidene)hydrazinethioamide], for which the “Inhibition Rate (%)” value is listed as 44.00%. As for `O=C1Nc2ccccc2/C1=N/NC(=S)Nc1ccc(F)cc1` [Compound 57, (Z)-N-(4-fluorophenyl)-2-(2-oxoindolin-3-ylidene)hydrazinethioamide], the “Inhibition Rate (%)” value is given as 40.10%.
